PubChem BioAssay AID743234 (The Scripps Research Institute Molecular Screening Center, 2013)
Activity calls are given as the source filed them. No rule for the calls is given here.

biological target: Trace amine-associated receptor 1 (Homo sapiens) (UniProt Q96RJ0); assay: blockers of human TAAR1 signalling – cell-based, fluorescence, late-stage follow-up (AID 743234); details: TAAR1-expressing cells, fluorescence antagonist readout
Sequence (Q96RJ0 whole entry, looked up, the tested form may be a part): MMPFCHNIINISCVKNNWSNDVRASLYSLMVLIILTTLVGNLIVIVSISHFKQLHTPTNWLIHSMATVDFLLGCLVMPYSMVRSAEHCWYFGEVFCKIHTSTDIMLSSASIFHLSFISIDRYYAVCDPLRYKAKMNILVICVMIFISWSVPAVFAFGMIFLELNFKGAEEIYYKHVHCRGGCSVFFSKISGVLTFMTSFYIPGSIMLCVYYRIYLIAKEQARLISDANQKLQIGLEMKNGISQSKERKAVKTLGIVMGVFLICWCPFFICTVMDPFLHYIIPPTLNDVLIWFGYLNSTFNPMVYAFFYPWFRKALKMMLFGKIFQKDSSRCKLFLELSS

SMILES	IC50
COc1cc(NC(=O)c2cc3ccccc3o2)c(OC)cc1Cl	> 29900 nM (inactive)
Cc1cccc(C(C#N)c2nc3ccccc3nc2C(F)(F)F)c1 (stereo not given)	1730 nM
O=C(NCCn1cc(SCc2ccccc2F)c2ccccc21)c1c(F)cccc1F	inactive
COc1cccc(-c2nn(-c3ccccc3)cc2C(=O)Nc2nccs2)c1	inactive
Cc1ccc(CSCC(=O)Nc2cc(S(=O)(=O)N3CCOCC3)ccc2OCC(F)(F)F)cc1	1600 nM
